Key:
[1] = system: GLXMAW (Soybean, Williams); experiment: Preemergence herbicidal evaluation; type: in vivo, Glycine max, (L.) Merr. cv Williams; settings: rated 4-5 weeks after treatment
Outline: (§1)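 Scores (0–9) reflect visual comparison with control plants for stand, vigor, malformation, size and chlorosis. Compound was applied to the soil after sowing, before emergence, as an aqueous acetone spray (about 0.0156–0.500 kg/ha), and cups were kept in a greenhouse for 4–5 weeks.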

ZEAMX (Corn, Field) = experiment: Preemergence herbicidal evaluation; type: in vivo, Zea mays; settings: rated 4-5 weeks after treatment
Outline: as §1

ECHCG (Barnyardgrass) = experiment: Postemergence herbicidal evaluation; type: in vivo, Echinochloa crus-galli; settings: postemergence
Outline: (§2)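 Scores (0–9) reflect plant stand, vigor, malformation, size, chlorosis and general appearance relative to control, read 4 to 5 weeks after treatment and averaged where tests were repeated. Application: about 0.0156–0.500 kg/ha sprayed at 40 psi onto two-week seedlings.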

CYPSE (Flatsedge) = experiment: Postemergence weed control under flooded paddy conditions; type: in vivo, Cyperus serotinus; settings: postemergence weeds, rated 3 to 4 weeks after treatment
Outline: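 Containers holding 3–5 cm weeds and rice at 1.5–2.5 leaves are flooded to 1.5–3 cm above soil. Compound in 50/50 v/v aqueous/acetone is then added directly to the water, about 0.0313–0.500 kg/ha. Plants are kept in the greenhouse and rated 0–9 visually at 3–4 weeks.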

ORYSAT (Rice, Tebonnet) [2] = experiment: Postemergence herbicidal evaluation; type: in vivo, Oryza sativa, (L.) Tebonnet; settings: postemergence
Outline: as §2

GALAP (Galium) = experiment: Preemergence herbicidal evaluation; type: in vivo, Galium aparine; settings: rated 4-5 weeks after treatment
Outline: as §1

SETVI (Foxtail, Green) = experiment: Preemergence herbicidal evaluation; type: in vivo, Setaria viridis; settings: rated 4-5 weeks after treatment
Outline: as §1

[3] = system: TRZAWR (Wheat, Winter, cv Riband); experiment: Preemergence herbicidal evaluation; type: in vivo, Triticum aestivum; settings: rated 4-5 weeks after treatment
Outline: as §1

CASOB (Sicklepod) = experiment: Postemergence herbicidal evaluation; type: in vivo, Cassia obtusifolia; settings: postemergence
Outline: as §2

ORYSAT (Rice, Tebonnet) [4] = experiment: Preemergence herbicidal evaluation; type: in vivo, Oryza sativa, (L.) Tebonnet; settings: rated 4-5 weeks after treatment
Outline: as §1

[5] = system: SAGPY (Arrowhead (Pygmaea)); experiment: Preemergence weed control under flooded paddy conditions; type: in vivo, Sagittaria pygmaea; settings: rated 3-4 weeks after treatment
Outline: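 First, seeds or propagules go into the top 0.5 cm of silt loam; next, water is held 1.5 to 3 cm over the soil; then compound (50/50 acetone/water) is pipetted into it at about 0.0313 to 0.500 kg/ha; finally plants are rated visually 0-9 after three to four weeks.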

[6] = system: CHEAL (Lambsquarters, Common); experiment: Postemergence herbicidal evaluation; type: in vivo, Chenopodium album; settings: postemergence
Outline: as §2

CYPIR (Rice Flatsedge) = experiment: Preemergence weed control under flooded paddy conditions; type: in vivo, Cyperus iria; settings: rated 3-4 weeks after treatment
Outline: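 Seeds or propagules sown in silt loam kept flooded 1.5-3 cm; compounds in 50/50 acetone/water pipetted into flood water at about 0.0313 to 0.500 kg/ha. Greenhouse; visual 0-9 rating versus untreated control 3-4 weeks after treatment.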

SMILES: Cn1c(C(F)(F)F)cc(=O)n(-c2cc(N=C3SCC(=O)N3[C@H](Cc3ccccc3)C(=O)O)c(Cl)cc2F)c1=O [Compound 69, α-Benzyl-2-{{2-chloro-5-[3,6-dihydro-3-methyl-2,6-dioxo-4-(trifluoromethyl)-1(2H)-pyrimidinyl]-4-fluorophenyl}imino}-4-oxo-3-thiazolidineacetic acid, D-]
- Preemergence herbicidal rating GLXMAW ([1]; rate 0.0156 kg/ha): 1.0
- Preemergence herbicidal rating GLXMAW ([1]; rate 0.0313 kg/ha): 0.0
- Preemergence herbicidal rating GLXMAW ([1]; rate 0.0625 kg/ha): 0.0
- Preemergence herbicidal rating GLXMAW ([1]; rate 0.1250 kg/ha): 1.0
- Preemergence herbicidal rating GLXMAW ([1]; rate 0.2500 kg/ha): 2.0
- Preemergence herbicidal rating ZEAMX (ZEAMX (Corn, Field); rate 0.0156 kg/ha): 0.0
- Preemergence herbicidal rating ZEAMX (ZEAMX (Corn, Field); rate 0.0313 kg/ha): 0.0
- Preemergence herbicidal rating ZEAMX (ZEAMX (Corn, Field); rate 0.0625 kg/ha): 0.0
- Preemergence herbicidal rating ZEAMX (ZEAMX (Corn, Field); rate 0.1250 kg/ha): 3.0
- Preemergence herbicidal rating ZEAMX (ZEAMX (Corn, Field); rate 0.2500 kg/ha): 3.0
- ECHCG herbicidal rating (ECHCG (Barnyardgrass); rate 0.0158 kg/ha): 2.0
- ECHCG herbicidal rating (ECHCG (Barnyardgrass); rate 0.0315 kg/ha): 1.0
- ECHCG herbicidal rating (ECHCG (Barnyardgrass); rate 0.0630 kg/ha): 4.0
- Herbicidal rating CYPSE (CYPSE (Flatsedge); Rate 0.0313 kg/ha): 3.0
- Herbicidal rating CYPSE (CYPSE (Flatsedge); Rate 0.0625 kg/ha): 3.0
- Herbicidal rating CYPSE (CYPSE (Flatsedge); Rate 0.1250 kg/ha): 9.0
- Herbicidal rating CYPSE (CYPSE (Flatsedge); Rate 0.2500 kg/ha): 9.0
- ORYSAT herbicidal rating (ORYSAT (Rice, Tebonnet) [2]; rate 0.0158 kg/ha): 2.5
- ORYSAT herbicidal rating (ORYSAT (Rice, Tebonnet) [2]; rate 0.0315 kg/ha): 3.0
- ORYSAT herbicidal rating (ORYSAT (Rice, Tebonnet) [2]; rate 0.0630 kg/ha): 4.5
- Preemergence herbicidal rating GALAP (GALAP (Galium); rate 0.0156 kg/ha): 0.0
- Preemergence herbicidal rating GALAP (GALAP (Galium); rate 0.0313 kg/ha): 0.0
- Preemergence herbicidal rating GALAP (GALAP (Galium); rate 0.0625 kg/ha): 0.0
- Preemergence herbicidal rating GALAP (GALAP (Galium); rate 0.1250 kg/ha): 1.0
- Preemergence herbicidal rating GALAP (GALAP (Galium); rate 0.2500 kg/ha): 1.0
- Preemergence herbicidal rating SETVI (SETVI (Foxtail, Green); rate 0.0156 kg/ha): 0.0
- Preemergence herbicidal rating SETVI (SETVI (Foxtail, Green); rate 0.0313 kg/ha): 0.0
- Preemergence herbicidal rating SETVI (SETVI (Foxtail, Green); rate 0.0625 kg/ha): 0.0
- Preemergence herbicidal rating SETVI (SETVI (Foxtail, Green); rate 0.1250 kg/ha): 4.0
- Preemergence herbicidal rating SETVI (SETVI (Foxtail, Green); rate 0.2500 kg/ha): 7.0
- Preemergence herbicidal rating TRZAWR ([3]; rate 0.0156 kg/ha): 0.0
- Preemergence herbicidal rating TRZAWR ([3]; rate 0.0313 kg/ha): 0.0
- Preemergence herbicidal rating TRZAWR ([3]; rate 0.0625 kg/ha): 0.0
- Preemergence herbicidal rating TRZAWR ([3]; rate 0.1250 kg/ha): 1.0
- Preemergence herbicidal rating TRZAWR ([3]; rate 0.2500 kg/ha): 1.0
- CASOB herbicidal rating (CASOB (Sicklepod); rate 0.0158 kg/ha): 1.0
- CASOB herbicidal rating (CASOB (Sicklepod); rate 0.0315 kg/ha): 2.0
- CASOB herbicidal rating (CASOB (Sicklepod); rate 0.0630 kg/ha): 2.0
- Preemergence herbicidal rating ORYSAT (ORYSAT (Rice, Tebonnet) [4]; rate 0.0156 kg/ha): 0.0
- Preemergence herbicidal rating ORYSAT (ORYSAT (Rice, Tebonnet) [4]; rate 0.0313 kg/ha): 0.0
- Preemergence herbicidal rating ORYSAT (ORYSAT (Rice, Tebonnet) [4]; rate 0.0625 kg/ha): 0.0
- Preemergence herbicidal rating ORYSAT (ORYSAT (Rice, Tebonnet) [4]; rate 0.1250 kg/ha): 1.0
- Preemergence herbicidal rating ORYSAT (ORYSAT (Rice, Tebonnet) [4]; rate 0.2500 kg/ha): 1.0
- SAGPY herbicidal effect rating ([5]; 0.0313 kg/ha): 0.0
- SAGPY herbicidal effect rating ([5]; 0.0625 kg/ha): 0.0
- SAGPY herbicidal effect rating ([5]; 0.1250 kg/ha): 3.0
- SAGPY herbicidal effect rating ([5]; 0.2500 kg/ha): 3.0
- CHEAL herbicidal rating ([6]; rate 0.0158 kg/ha): 7.0
- CHEAL herbicidal rating ([6]; rate 0.0315 kg/ha): 9.0
- CYPIR herbicidal effect rating (CYPIR (Rice Flatsedge); 0.0313 kg/ha): 3.0
- CYPIR herbicidal effect rating (CYPIR (Rice Flatsedge); 0.0625 kg/ha): 3.0
- CYPIR herbicidal effect rating (CYPIR (Rice Flatsedge); 0.1250 kg/ha): 3.0
- CYPIR herbicidal effect rating (CYPIR (Rice Flatsedge); 0.2500 kg/ha): 3.0
